{"source": "patent US11917996B2", "about": "“Herbicidal compositions for animal grazelands and methods for applying the same” (DISCOVERY PURCHASER CORPORATION, priority 2018, dated 2024)", "key": {"[1]": {"details": "pH 7; cited from earlier work"}, "[2]": {"assay": "Ruminant metabolism studies with 14C-labelled indaziflam", "format": "in vivo, ruminants", "details": "[triazine-2,4-14C] and [indane-3-14C] indaziflam", "source_text": "Ruminant metabolism studies have been conducted with both [triazine-2,4-^14C] indaziflam and [indane-3-^14C] indaziflam according to current EPA guidelines. Accumulation into the edible tissues was low and the metabolism of indaziflam in ruminants is well understood."}, "medusahead": {"system": "medusahead", "assay": "Pre-emergence control of medusahead", "format": "in vivo, Taeniatherum caput-medusae", "source_text": "(§1) This provides land managers with a new opportunity to start the process of eliminating the annual grass seed bank. […] This makes indaziflam an effective tool to start the process of depleting the invasive annual grass soil seed bank. Furthermore, providing long-term control of annual grasses with indaziflam results in both reduced thatch that serves as fuel for highly destructive wildfires, and the effective creation of firebreaks that protect communities of desirable perennials. As a result, native ecosystems are promoted, allowing for increased habitat for animal species of concern including wildlife and pollinators."}, "ventenata": {"system": "ventenata", "assay": "Pre-emergence control of ventenata", "format": "in vivo, Ventenata dubia", "source_text": "as §1"}, "[3]": {"assay": "Dairy cow feeding study: total indaziflam residue in milk and tissues after 29 consecutive days of dosing", "format": "in vivo, lactating Holstein dairy cows (Bos taurus)", "procedure": "A feeding study was conducted to measure total indaziflam residue in milk, cream (milk fat), skim milk (whey), mesenteric (omental) fat, perirenal fat, subcutaneous fat, liver, kidney, muscle and excrement (feces or faeces) from lactating Holstein dairy cows (Bos taurus) following 29 consecutive days of dosing with indaziflam. The base daily dose of indaziflam was calculated to be 31 mg/kg dry matter feed. Four groups of cows were fed at 0 (control—two cows), 31 (1×—three cows), […] (3×—three cows) and 311 (10×—seven cows) mg/kg dry matter feed.\nMilk was collected twice daily from all dose groups, morning and evening. Doses were administered after the morning milking. Milk was subsampled for analysis from the controls and all dose groups on study days 0, 2, 4, 7, 10, 14, 17, 21, 25, and 28. […]\nThe remaining cows (one control and four from the 10× dose level) entered the depuration phase of the study. […] Milk, tissues and excrement from the cows sacrificed at each interval were analyzed to monitor the decline of the residues of indaziflam and its metabolites. […]\nThe individual analyte derived residues were converted to indaziflam parent equivalents and summed to give a total indaziflam residue. The limit of quantitation (LOQ) for total indaziflam residue was 0.05 ppm for fat, kidney, muscle and liver. […]"}, "[4]": {"assay": "Human safety risk assessment (aggregate dietary and non-dietary exposure, current EPA practice)", "set-up": "species or system US Population", "source_text": "Human safety risk assessments have been conducted, using current EPA practice, for all the current and proposed new uses of indaziflam. Chronic aggregate dietary exposure (food and water) will utilize less than 4% of the cPAD for the US Population. Acute aggregate dietary exposure (food and water) for the U.S. population, utilizes 7% of the aPAD."}, "cheatgrass": {"system": "cheatgrass", "assay": "Pre-emergence control of cheatgrass", "format": "in vivo, Bromus tectorum", "source_text": "as §1"}}}
{"smiles": "Cc1ccc2c(c1)[C@H](Nc1nc(N)nc(C(C)F)n1)[C@@H](C)C2", "note": "(mixture of isomers) [indaziflam, N2-[(1R,2S)-2,3-dihydro-2,6-dimethyl-1H-inden-1-yl]-6-[(1RS)-1-fluoroethyl]-1,3,5-triazine-2,4-diamine]", "values": [{"measurement": "log Kow", "setting": "[1]", "value": 2.8}, {"measurement": "Accumulation into the edible tissues", "setting": "[2]", "value": "low"}, {"measurement": "Pre-emergence effectiveness compared with imazapic", "setting": "medusahead", "value": "significantly more effective"}, {"measurement": "Pre-emergence effectiveness compared with imazapic", "setting": "ventenata", "value": "significantly more effective"}, {"measurement": "Average total indaziflam residues in muscle", "setting": "[3]; 1× rate, Day 29, LOQ 0.05 ppm", "value": "< LOQ"}, {"measurement": "Residues in all tissues and milk in the depuration phase", "setting": "[3]; 10× dose cows, 3 to 21 days after end of dosing", "value": "declined rapidly"}, {"measurement": "Non-dietary and aggregate margins of exposure (food, drinking water, and non-dietary)", "setting": "[4]", "value": "above the Level of Concern"}, {"measurement": "Acute aggregate dietary exposure (food and water), utilization of the aPAD", "setting": "[4]; U.S. population", "value": "7 % of the aPAD"}, {"measurement": "Chronic aggregate dietary exposure (food and water), utilization of the cPAD", "setting": "[4]; US Population, all current and proposed new uses", "value": "less than 4 % of the cPAD"}, {"measurement": "Pre-emergence effectiveness compared with imazapic", "setting": "cheatgrass; cheatgrass", "value": "significantly more effective"}, {"measurement": "Long-term control of cheatgrass", "setting": "cheatgrass; single application", "value": "at least three years"}]}
